Test results from patent EP0414895A1, “OROTATE OF $g(a)-AMINO-$g(b)-PHENYL-BUTYRIC ACID” (NAUCHNO-PROIZVODSTVENNOE OBIEDINENIE "BIOLAR", priority 1989, dated 1990).
Counter-ions that a name gives are not always drawn.

Legend:
Assay type in all cases: in vivo
Mäuse [1] = assay: Motor and orientation activity in photoelectric actometer; settings: counted 60 min from 10 min after dosing
Description: Zur Bestimmung der sedativen Wirksamkeit wurde die motorische und Orientierungsaktivität und die motorische Fähigkeit in Versuchen an Mäusen und Ratten untersucht.
Den Versuchstieren wurden die beanspruchte Verbindung, γ -Amino- β -phenylbuttersäurehydrochlorid und Pyrazetam eingeführt. Als Kontrolle diente die physiologische Lösung (0,9%ige NaCl-Lösung). Die Untersuchungen wurden an I0 bis I2 erwachsenen Tieren (Mäuse, Ratten) durchgeführt.
Bei der Bestimmung der motorischen und Orientierungsaktivität wurde jede Maus in einer Einzelkamner des photoelektrischen Aktometers untergebracht. Die motorische und Orientierungsaktivität wurde nach der Zahl der Impulse bestimmt, die beim Berühren der Aktometerkontakte durch das Tier entstanden. Das Zählen der Im pulse wurde I0 min nach der intraperitonealen Einführung der genannten Verbindungen begonnen und dauerte innerhalb von 60 min. Die Angaben sind in der Tabelle I angeführt.

Mäuse [2] = assay: Conflict situation (punished water intake); settings: 45 to 120 min before test
Description: Es wurde auch die Wirkung der erfindungsgemässen Verbindung unter Bedingungen einer Konfliktsituation an männlichen Mäusen (Gruppe aus I0 Mäusen) untersucht. Vorläufig wurde den Mäusen das Wasser für 48 Stunden entzogen, danach wurden ihnen 45 bis I20 Minuten vor dem Versuch die Verbindungen intraperitoneal eingeführt und die Tiere wurden in der Kammer untergebracht, wo sich eine Wassertränke befand. Im Augenblick der Wassereinnahme bekam es einen elektrischen Schlag, der am Zähler registriert wurde. In der Prüfkammer befand sich das Tier innerhalb von 3 Minuten. Für diese Zeit wurden die Zahl der Wassereinnahmen sowie die Lazenzperiode - die Zeit zwischen dem Unterbringen des Tiers in der Kammer und der ersten Wassereinnahme - registriert. Die durchschnittlichen Angaben sind in der Tabelle 5 angeführt.

Mäuse [3] = assay: Habituation study: motor activity in actometer on repeated dosing
Procedure: (§1) Zur Untersuchung der Gewöhnung an die Wirkung der erfindungsgemässen Verbindung wurde die Dynamik der Benehmungseffekte an Mäusen beiderlei Geschlechts untersucht. In jeder Gruppe waren je I2 bis I8 Tiere. Die erfindungsgemässe Verbindung und γ -Amino- β - -phenylbuttersäurehydrochlorid wurden intraperitoneal in Dosen von 75 mg/kg bzw. 48 mg/kg zweimal am Tag eingeführt. Es wurden die Körpermasse, der Einfluss auf die motorische Aktivität (im Aktometer) und auf die emotionelle Reaktivität aud dem Wege der elektrischen Schmerzreizung untersucht. Die Tiere wurden innerhalb von 15 bis 20 Tagen untersucht. […] Der sedative Effekt der beanspruchten Verbindung war während der ganzen Versuchsperiode aufrechterhalten (Tabelle 7).

Mäuse [4] = assay: Habituation study: electric pain stimulation thresholds on repeated dosing
Description: In einer Kammer von 20 x 20 x 25 cm Ausmass, deren Boden - ein Metallgitter aus Stangen darstellt, wurde ein Paar Tiere untergebracht (männliche Mäuse) und es wurde der Wechselstrom durchgelassen. Die Spannung wurde dosenartig auf 5 V solange erhöht, bis der Strom das Piepsen (die Schwelle der emotionellen Reaktivität) und die Schlägerei der Tiere (die Schwelle der Aggressivität) auslöste. Jede Spannungsgrösse wurde innerhalb von 5 sec zweimal in einem Zeitabstand von 20 bis 50 Sekunden aufrechterhalten. Die Kontrolle des Benehmens der Tiere begann man I0 Minuten nach der Einführung der oben erwähnten Verbindungen. Die Angaben sind in Tabellen 3, 4 angeführt.
as §1

Mäuse [5] = assay: Hypoxia by subcutaneous Natriumnitroprussid, survival, mice
Procedure: Die […] Hypoxie wurde durch die subkutane Einführung von Natriumnitroprussid in einer Dosis von 20 mg/kg den Gruppen von Mäusen und Ratten zu I0 Stück in der Gruppe erzeugt. Natriumnitroprussid wurde 60 min nach der Einführung der Prüfverbindungen verabreicht. Die Angaben sind in Tabelle I5 (für Mäuse) und I6 (für Ratten) angeführt.

Ratten [6] = assay: Swimming test at 2°C, rats
Description: Der Einfluss der beanspruchten Verbindung auf die physische Toleranz der Tiere wurde nach dem Schwimmtest der Mäuse und Ratten untersucht. Die Versuche wurden in einer Wanne von […] Fläche durchgeführt. Die Tiergruppe (8 bis I0 Mäuse oder Ratten) wurde ins Wasser gebracht und es wurde die Zeit der Schwimmfähigkeit bestimmt. Die neue Verbindung und γ -Amino- β - -phenylbuttersäurehydrochlorid wurden enteral und intraperitoneal I Stunde oder 3 Stunden vor dem Schwimmbeginn eingeführt. Die Untersuchung wurde sowohl nach der einmaligen als auch nach der chronischen (innerhalb von 20 Tagen einmal täglich) Einführung der genannten Verbindungen durchgeführt. Die Versuche wurden bei 3 Temperaturen angestellt: 2°C (Tabelle I7), 25°C (Tabelle I8) und 40°C (Tabelle I9).

Ratten [7] = assay: Cold stress at 2°C, rectal temperature, rats; settings: for Rektaltemperatur nach I Stunde an der Kälte: 2°C; for Rektaltemperatur nach I Stunde: 1 h after dosing at room temperature
Procedure: Aus den in Tabellen angeführten Ergebnissen ist zu ersehen, dass die einmalige Einführung der neuen Verbindung die Schwimmdauer der Mäuse und Ratten wesentlich nicht beeinflusst. Nach der 20 Tage langen chronischen Einführung der neuen Verbindung wird die Schwimmdauer hingegen zuverlässig grösser - (Tabelle I7) um das I,5fache im kalten Wasser und um das 2,5fache bei einer Temperatur von 40°C (Tabelle I9) im Vergleich zu γ -Amino- β -phenylbuttersäurehydrochlorid. Auf diese Weise erhöht die chronische Einführung der neuen Verbindung wesentlich die physische Toleranz der Tiere. Ausserdem wurde auch die Toleranz der Tiere gegen den Kältestress bestimmt. Die Untersuchung wurde bei einer Temperatur von 2°C an Mäusen und Ratten durchgeführt, indem jedes Tier abgesondert in der Einzelkammer von I5 x 20 x 20 cm Ausmass untergebracht wurde. Es wurde die Rektaltemperatur vor der Einführung der neuen Verbindung, des γ -Amino- β - phenylbuttersäurehydrochlorids und der physiologischen Kontrollösung eine Stunde nach der Einführung bei Zimmertemperatur und nach I Stunde und 2 Stunden in der Kälte gemessen. Die Versuche wurden an einer Mäusengruppe (I0 Stück) (Tabelle 20) und an einer Rattengruppe (8 Stück) (Tabelle 2I) bei der einmaligen und chronischen Einführung innerhalb von 22 bzw. I6 Tagen einmal pro Tag angestellt.

Ratten [8] = assay: Natriumäthaminal intoxication, sleep duration, rats
Procedure: Ausserdem wurde die Wirkung der beanspruchten Verbindung auf die durch Natriumäthaminal erzeugte Intoxikation untersucht. Die Versuche wurden an männlichen Mäusen und Ratten in Gruppen zu 8 bis I0 Tieren angestellt. Natriumäthaminal wurde intraperitoneal in einner Dosis von I00 mg/kg I5 min nach der enteralen Verabreichung der beanspruchten Verbindung oder der Kontrollarzneimittel eingeführt. Es wurde die einmalige und chronische Einwirkung (während I2 bis I4 Tage einmal täglich) von der neuen Verbindung, γ -Amino- β - -phenylbuttersäurehydrochlorid und Pyrazetam untersucht. Es wurde die Dauer der Seitenlage - des Schlafs der Tiere bestimmt. Die Ergebnisse dieser Untersuchung sind in Tabelle 23 (für Mäuse) und 24 (für Ratten) angeführt.

[9] = day 1, 48 mg/kg i.p. twice daily
[10] = day 5, 48 mg/kg i.p. twice daily
[11] = day 10, 48 mg/kg i.p. twice daily
[12] = day 15, 48 mg/kg i.p. twice daily
[13] = 50 mg/kg chronic, 14 days + Natriumäthaminal 100 mg/kg i.p.
[14] = 50 mg/kg single + Natriumäthaminal 100 mg/kg i.p.
[15] = day 1, 75 mg/kg i.p. twice daily
[16] = day 5, 75 mg/kg i.p. twice daily
[17] = day 10, 75 mg/kg i.p. twice daily
[18] = day 15, 75 mg/kg i.p. twice daily

Compound: NCC(CC(=O)O)c1ccccc1 (stereo not drawn) [γ-Amino-β-phenylbutter-säurehydrochlorid, γ -Amino- β -phenylbuttersäurehydrochlorid, reference compound]
- Anzahl der Impulse im Aktometer (Mäuse [1]; 16 mg/kg i.p.): 368±51
- Anzahl der Impulse im Aktometer (Mäuse [1]; 32 mg/kg i.p.): 238±28
- Anzahl der Impulse im Aktometer (Mäuse [1]; 40 mg/kg i.p.): 158±21
- Latenzperiode (Mäuse [2]; 16 mg/kg i.p.): 36,4±6,8 sec
- Anzahl der Impulse im Aktometer innerhalb von 45 min (Mäuse [3]; [9]): 75±19
- Anzahl der Impulse im Aktometer innerhalb von 45 min (Mäuse [3]; [10]): 223±36
- Anzahl der Impulse im Aktometer innerhalb von 45 min (Mäuse [3]; [11]): 257±38
- Anzahl der Impulse im Aktometer innerhalb von 45 min (Mäuse [3]; [12]): 283±47
- Spannung in V, die Schwelle der Aggressivität (Mäuse [4]; [9]): 29±2 V
- Spannung in V, die Schwelle der emotionellen Reaktivität (Mäuse [4]; [9]): 24±2 V
- Spannung in V, die Schwelle der Aggressivität (Mäuse [4]; [10]): 27±4 V
- Spannung in V, die Schwelle der emotionellen Reaktivität (Mäuse [4]; [10]): 23±2 V
- Spannung in V, die Schwelle der Aggressivität (Mäuse [4]; [11]): 26±3 V
- Spannung in V, die Schwelle der emotionellen Reaktivität (Mäuse [4]; [11]): 20±2 V
- Spannung in V, die Schwelle der Aggressivität (Mäuse [4]; [12]): 24±2 V
- Überlebensdauer (Mäuse [5]; Natriumnitroprussid 20 mg/kg s.c., 35 mg/kg chronic, 10 days once daily): 515,6±34 sec
- Schwimmzeit, Ratten (Ratten [6]; 35 mg/kg chronic, 20 days): 328,8±34
- Schwimmzeit, Ratten (Ratten [6]; 35 mg/kg single): 304,3±29
- Rektaltemperatur nach I Stunde an der Kälte (Ratten [7]; 35 mg/kg chronic, 16 days): 23,2±0,2
- Rektaltemperatur nach I Stunde (Ratten [7]; 35 mg/kg chronic, 16 days): 30,4±0,3
- Schlafdauer (Ratten [8]; [13]): 290,0±17 min
- Schlafdauer (Ratten [8]; [14]): 288,6±27 min

Compound: γ -Amino- β -phenylbuttersäureorotat [Erfindungsgemässe Verbindung]
- Anzahl der Impulse im Aktometer (Mäuse [1]; 25 mg/kg i.p.): 322±43
- Anzahl der Impulse im Aktometer (Mäuse [1]; 50 mg/kg i.p.): 208±27
- Anzahl der Impulse im Aktometer (Mäuse [1]; 75 mg/kg i.p.): 123±18
- Anzahl der Wassereinnahmen für 3 Minuten (Mäuse [2]; 25 mg/kg i.p.): 5,6±0,7
- Latenzperiode (Mäuse [2]; 25 mg/kg i.p.): 52,4±20 sec
- Anzahl der Impulse im Aktometer innerhalb von 45 min (Mäuse [3]; [15]): 125±25
- Anzahl der Impulse im Aktometer innerhalb von 45 min (Mäuse [3]; [16]): 108±21
- Anzahl der Impulse im Aktometer innerhalb von 45 min (Mäuse [3]; [17]): 109±47
- Anzahl der Impulse im Aktometer innerhalb von 45 min (Mäuse [3]; [18]): 123±17
- Spannung in V, die Schwelle der Aggressivität (Mäuse [4]; [15]): 30±3 V
- Spannung in V, die Schwelle der emotionellen Reaktivität (Mäuse [4]; [15]): 22±2 V
- Spannung in V, die Schwelle der Aggressivität (Mäuse [4]; [16]): 29±2 V
- Spannung in V, die Schwelle der emotionellen Reaktivität (Mäuse [4]; [16]): 23±2 V
- Spannung in V, die Schwelle der Aggressivität (Mäuse [4]; [17]): 29±2 V
- Spannung in V, die Schwelle der emotionellen Reaktivität (Mäuse [4]; [17]): 24±3 V
- Spannung in V, die Schwelle der Aggressivität (Mäuse [4]; [18]): 34±3 V
- Spannung in V, die Schwelle der emotionellen Reaktivität (Mäuse [4]; [18]): 22±2 V
- Überlebensdauer (Mäuse [5]; Natriumnitroprussid 20 mg/kg s.c. 60 min after compound, 50 mg/kg single): 740,3±68 sec
- Überlebensdauer (Mäuse [5]; Natriumnitroprussid 20 mg/kg s.c., 50 mg/kg chronic, 10 days once daily): 1083,7±80 sec
- Schwimmzeit, Ratten (Ratten [6]; 30 mg/kg chronic, 20 days): 390,0±56
- Rektaltemperatur vor der Einführung der Verbindung (Ratten [7]; 50 mg/kg chronic, 16 days): 30,7±0,2
- Rektaltemperatur nach I Stunde an der Kälte (Ratten [7]; 50 mg/kg chronic, 16 days): 27,0±0,3
- Rektaltemperatur vor der Einführung der Verbindung (Ratten [7]; 50 mg/kg single): 30,4±0,3
- Rektaltemperatur nach I Stunde (Ratten [7]; 50 mg/kg single): 30,9±0,3
- Schlafdauer (Ratten [8]; 25 mg/kg single + Natriumäthaminal 100 mg/kg i.p.): 314,8±22 min
- Schlafdauer (Ratten [8]; [13]): 167,4±23 min
- Schlafdauer (Ratten [8]; [14]): 306,4±16 min
